In brackets after ≈: the same amount, converted by molar mass. Each block holds one compound with its values, some of them ahead of it.
Legend:
Assay in all cases: In vitro antibacterial evaluation: minimum inhibitory concentration (MIC), broth dilution method
Assay type in all cases: cell-based
[1] = system: Enterococcus sp.; details: 18 hours at 35° C.
Outline: (§1)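 Broth dilution per NCCLS M7-A2 in Muller-Hinton II […], inoculum 5×10^5 CFU/mL, antibiotic tested over 64-0.06 μg/mL. MIC is taken as the lowest concentration that inhibits growth. Panel includes recent clinical isolates resistant to methicillin, penicillin and/or vancomycin.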

[2] = system: Streptococcus sp.; details: 18 hours at 35° C.
Outline: as §1

[3] = system: Escherichia coli; details: 18 hours at 35° C.
Outline: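 Susceptibility determined by NCCLS-recommended broth dilution (M7-A2), Muller-Hinton II […]. Concentration span 64-0.06 μg/mL, inoculum 5×10^5 CFU/mL. Isolates include strains resistant to methicillin, penicillin and/or vancomycin.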

[4] = system: Staphylococcus sp.; details: for MIC Staphylococcus aureus (ATCC 29213): strain ATCC 29213; for MIC Staphylococcus aureus (GC 1131): strain GC 1131; for MIC Staphylococcus aureus (GC 3051): strain GC 3051; for MIC Staphylococcus aureus (GC 3053): strain GC 3053; for MIC Staphylococcus aureus (GC 4541): strain GC 4541; for MIC Staphylococcus aureus (GC 4542): strain GC 4542; for MIC Staphylococcus aureus-SMITH (GC 4543): strain GC 4543; for MIC Staphylococcus aureus (GC 4544): strain GC 4544; for MIC Staphylococcus aureus (GC 4545): strain GC 4545; for MIC Staphylococcus haemolyticus (GC 4546): strain GC 4546; for MIC Coagulase Negative Staphylococcus (GC 4547): strain GC 4547; for MIC Coagulase Negative Staphylococcus (GC 4548): strain GC 4548; for MIC Coagulase Negative Staphylococcus (GC 4549): strain GC 4549; for MIC Coagulase Negative Staphylococcus (GC 4551): strain GC 4551
Outline: as §1

[5] = Enterococcus faecalis (ATCC 29212)
[6] = Enterococcus faecalis (GC 2242)
[7] = Enterococcus faecalis (GC 2691)
[8] = Enterococcus faecalis (GC 3059)
[9] = Enterococcus faecalis (GC 4552)
[10] = Enterococcus faecalis (GC 4553)
[11] = Enterococcus faecalis (GC 4554)
[12] = Enterococcus faecalis (GC 6189)
[13] = broth dilution, inoculum 5×10^5 CFU/mL
[14] = Streptococcus agalactiae (GC 4564)
[15] = Streptococcus pneumoniae (ATCC 6301)
[16] = Streptococcus pneumoniae (GC 1894)
[17] = Streptococcus pneumoniae (GC 4565)
[18] = Streptococcus pyogenes (GC 4563)

MIC Enterococcus avium (GC 4558) ([1]; Enterococcus avium (GC 4558)): 4 µg/mL (≈ 2.83 µM) | MIC Enterococcus faecalis (ATCC 29212) [1, 5]: 4 µg/mL (≈ 2.83 µM) | MIC Enterococcus faecalis (GC 2242) [1, 6]: 4 µg/mL (≈ 2.83 µM) | MIC Enterococcus faecalis (GC 2691) [1, 7]: 4 µg/mL (≈ 2.83 µM) | MIC Enterococcus faecalis (GC 3059) [1, 8]: 4 µg/mL (≈ 2.83 µM) | MIC Enterococcus faecalis (GC 4552) [1, 9]: 4 µg/mL (≈ 2.83 µM) | MIC Enterococcus faecalis (GC 4553) [1, 10]: 4 µg/mL (≈ 2.83 µM) | MIC Enterococcus faecalis (GC 4554) [1, 11]: 4 µg/mL (≈ 2.83 µM) | MIC Enterococcus faecalis (GC 6189) [1, 12]: 4 µg/mL (≈ 2.83 µM) | MIC Enterococcus faecium (GC 2243) ([1]; Enterococcus faecium (GC 2243)): 4 µg/mL (≈ 2.83 µM) | MIC Enterococcus faecium (GC 4556) ([1]; Enterococcus faecium (GC 4556)): 4 µg/mL (≈ 2.83 µM) | MIC Enterococcus faecium (GC 4557) ([1]; Enterococcus faecium (GC 4557)): 4 µg/mL (≈ 2.83 µM) | MIC Enterococcus avium (GC 4558) [1, 13]: 4 µg/mL (≈ 2.83 µM) | MIC Enterococcus faecalis (ATCC 29212) [1, 13]: 4 µg/mL (≈ 2.83 µM) | MIC Enterococcus faecalis (GC 2242) [1, 13]: 4 µg/mL (≈ 2.83 µM) | MIC Enterococcus faecalis (GC 2691) [1, 13]: 4 µg/mL (≈ 2.83 µM) | MIC Enterococcus faecalis (GC 3059) [1, 13]: 4 µg/mL (≈ 2.83 µM) | MIC Enterococcus faecalis (GC 4552) [1, 13]: 4 µg/mL (≈ 2.83 µM) | MIC Enterococcus faecalis (GC 4553) [1, 13]: 4 µg/mL (≈ 2.83 µM) | MIC Enterococcus faecalis (GC 4554) [1, 13]: 4 µg/mL (≈ 2.83 µM) | MIC Enterococcus faecalis (GC 6189) [1, 13]: 4 µg/mL (≈ 2.83 µM) | MIC Enterococcus faecium (GC 2243) [1, 13]: 4 µg/mL (≈ 2.83 µM) | MIC Enterococcus faecium (GC 4556) [1, 13]: 4 µg/mL (≈ 2.83 µM) | MIC Enterococcus faecium (GC 4557) [1, 13]: 4 µg/mL (≈ 2.83 µM) | MIC Streptococcus agalactiae (GC 4564) [2, 14]: 0.5 µg/mL (≈ 0.353 µM) | MIC Streptococcus pneumoniae (ATCC 6301) [2, 15]: 0.25 µg/mL (≈ 0.177 µM) | MIC Streptococcus pneumoniae (GC 1894) [2, 16]: <0.06 µg/mL | MIC Streptococcus pneumoniae (GC 4565) [2, 17]: 0.25 µg/mL (≈ 0.177 µM) | MIC Streptococcus pyogenes (GC 4563) [2, 18]: 0.5 µg/mL (≈ 0.353 µM) | MIC Streptococcus agalactiae (GC 4564) [2, 13]: 0.5 µg/mL (≈ 0.353 µM) | MIC Streptococcus pneumoniae (ATCC 6301) [2, 13]: 0.25 µg/mL (≈ 0.177 µM) | MIC Streptococcus pneumoniae (GC 1894) [2, 13]: <0.06 µg/mL | MIC Streptococcus pneumoniae (GC 4565) [2, 13]: 0.25 µg/mL (≈ 0.177 µM) | MIC Streptococcus pyogenes (GC 4563) [2, 13]: 0.5 µg/mL (≈ 0.353 µM) | MIC Escherichia coli (ATCC 25922) [3]: 32 µg/mL (≈ 22.6 µM) | MIC Escherichia coli (GC 4559) [3]: 16 µg/mL (≈ 11.3 µM) | MIC Escherichia coli (GC 4560) [3]: 2 µg/mL (≈ 1.41 µM) | MIC Staphylococcus aureus (ATCC 29213) [4]: 2 µg/mL (≈ 1.41 µM) | MIC Staphylococcus aureus (GC 1131) [4]: 2 µg/mL (≈ 1.41 µM) | MIC Staphylococcus aureus (GC 3051) [4]: 2 µg/mL (≈ 1.41 µM) | MIC Staphylococcus aureus (GC 3053) [4]: 2 µg/mL (≈ 1.41 µM) | MIC Staphylococcus aureus (GC 4541) [4]: 1 µg/mL (≈ 0.707 µM) | MIC Staphylococcus aureus (GC 4542) [4]: 1 µg/mL (≈ 0.707 µM) | MIC Staphylococcus aureus-SMITH (GC 4543) [4]: 2 µg/mL (≈ 1.41 µM) | MIC Staphylococcus aureus (GC 4544) [4]: 2 µg/mL (≈ 1.41 µM) | MIC Staphylococcus aureus (GC 4545) [4]: 1 µg/mL (≈ 0.707 µM) | MIC Coagulase Negative Staphylococcus (GC 4547) [4]: 2 µg/mL (≈ 1.41 µM) | MIC Coagulase Negative Staphylococcus (GC 4548) [4]: 1 µg/mL (≈ 0.707 µM) | MIC Coagulase Negative Staphylococcus (GC 4549) [4]: 1 µg/mL (≈ 0.707 µM) | MIC Coagulase Negative Staphylococcus (GC 4551) [4]: 2 µg/mL (≈ 1.41 µM) | MIC Coagulase Negative Staphylococcus (GC 6257) ([4]; strain GC 6257): 1 µg/mL (≈ 0.707 µM)
SMILES: CC(c1ccccc1)C1NC(=O)CNC(=O)C(CO)NC(=O)C(C(O)C2CNC(=N)N2C2OC(CO)C(O)C(O)C2O)NC(=O)C(C(O)C2CNC(=N)N2)NC(=O)C(Cc2ccc(OC3OC(CO)C(OC4OC5COC(C)(c6ccc(F)cc6)OC5C(O)C4O)C(O)C3O)cc2)NC1=O (stereo not drawn) [Example 216, Cyclo[glycyl-β-methylphenylalanyl-O-[4-O-[4,6-O-(4-fluoro-α-methylbenzylidene)hexopyranosyl]hexopyranosyl]tyrosyl-3-(2-iminoimidazolidin-4-yl)seryl-3-(3-hexopyranosyl-2-iminoimidazolidin-4-yl)serylseryl]]
MIC Staphylococcus haemolyticus (GC 4546) [4]: 1 µg/mL (≈ 0.707 µM)

MIC Enterococcus avium (GC 4558) ([1]; Enterococcus avium (GC 4558)): 16 µg/mL (≈ 11.5 µM) | MIC Enterococcus faecalis (ATCC 29212) [1, 5]: 16 µg/mL (≈ 11.5 µM) | MIC Enterococcus faecalis (GC 2242) [1, 6]: 16 µg/mL (≈ 11.5 µM) | MIC Enterococcus faecalis (GC 2691) [1, 7]: 16 µg/mL (≈ 11.5 µM) | MIC Enterococcus faecalis (GC 3059) [1, 8]: 32 µg/mL (≈ 23 µM) | MIC Enterococcus faecalis (GC 4552) [1, 9]: 16 µg/mL (≈ 11.5 µM) | MIC Enterococcus faecalis (GC 4553) [1, 10]: 32 µg/mL (≈ 23 µM) | MIC Enterococcus faecalis (GC 4554) [1, 11]: 32 µg/mL (≈ 23 µM) | MIC Enterococcus faecalis (GC 6189) [1, 12]: 16 µg/mL (≈ 11.5 µM) | MIC Enterococcus faecium (GC 2243) ([1]; Enterococcus faecium (GC 2243)): 16 µg/mL (≈ 11.5 µM) | MIC Enterococcus faecium (GC 4556) ([1]; Enterococcus faecium (GC 4556)): 16 µg/mL (≈ 11.5 µM) | MIC Enterococcus faecium (GC 4557) ([1]; Enterococcus faecium (GC 4557)): 8 µg/mL (≈ 5.74 µM) | MIC Enterococcus avium (GC 4558) [1, 13]: 16 µg/mL (≈ 11.5 µM) | MIC Enterococcus faecalis (ATCC 29212) [1, 13]: 16 µg/mL (≈ 11.5 µM) | MIC Enterococcus faecalis (GC 2242) [1, 13]: 16 µg/mL (≈ 11.5 µM) | MIC Enterococcus faecalis (GC 2691) [1, 13]: 16 µg/mL (≈ 11.5 µM) | MIC Enterococcus faecalis (GC 3059) [1, 13]: 32 µg/mL (≈ 23 µM) | MIC Enterococcus faecalis (GC 4552) [1, 13]: 16 µg/mL (≈ 11.5 µM) | MIC Enterococcus faecalis (GC 4553) [1, 13]: 32 µg/mL (≈ 23 µM) | MIC Enterococcus faecalis (GC 4554) [1, 13]: 32 µg/mL (≈ 23 µM) | MIC Enterococcus faecalis (GC 6189) [1, 13]: 16 µg/mL (≈ 11.5 µM) | MIC Enterococcus faecium (GC 2243) [1, 13]: 16 µg/mL (≈ 11.5 µM) | MIC Enterococcus faecium (GC 4556) [1, 13]: 16 µg/mL (≈ 11.5 µM) | MIC Enterococcus faecium (GC 4557) [1, 13]: 8 µg/mL (≈ 5.74 µM) | MIC Streptococcus agalactiae (GC 4564) [2, 14]: 2 µg/mL (≈ 1.44 µM) | MIC Streptococcus pneumoniae (ATCC 6301) [2, 15]: 1 µg/mL (≈ 0.718 µM) | MIC Streptococcus pneumoniae (GC 1894) [2, 16]: 0.25 µg/mL (≈ 0.179 µM) | MIC Streptococcus pneumoniae (GC 4565) [2, 17]: 0.5 µg/mL (≈ 0.359 µM) | MIC Streptococcus pyogenes (GC 4563) [2, 18]: 1 µg/mL (≈ 0.718 µM) | MIC Streptococcus agalactiae (GC 4564) [2, 13]: 2 µg/mL (≈ 1.44 µM) | MIC Streptococcus pneumoniae (ATCC 6301) [2, 13]: 1 µg/mL (≈ 0.718 µM) | MIC Streptococcus pneumoniae (GC 1894) [2, 13]: 0.25 µg/mL (≈ 0.179 µM) | MIC Streptococcus pneumoniae (GC 4565) [2, 13]: 0.5 µg/mL (≈ 0.359 µM) | MIC Streptococcus pyogenes (GC 4563) [2, 13]: 1 µg/mL (≈ 0.718 µM) | MIC Escherichia coli (ATCC 25922) [3]: 64 µg/mL (≈ 45.9 µM) | MIC Escherichia coli (GC 4559) [3]: 32 µg/mL (≈ 23 µM) | MIC Escherichia coli (GC 4560) [3]: 2 µg/mL (≈ 1.44 µM) | MIC Staphylococcus aureus (ATCC 29213) [4]: 4 µg/mL (≈ 2.87 µM) | MIC Staphylococcus aureus (GC 1131) [4]: 4 µg/mL (≈ 2.87 µM) | MIC Staphylococcus aureus (GC 3051) [4]: 4 µg/mL (≈ 2.87 µM) | MIC Staphylococcus aureus (GC 3053) [4]: 8 µg/mL (≈ 5.74 µM) | MIC Staphylococcus aureus (GC 4541) [4]: 4 µg/mL (≈ 2.87 µM) | MIC Staphylococcus aureus (GC 4542) [4]: 4 µg/mL (≈ 2.87 µM) | MIC Staphylococcus aureus-SMITH (GC 4543) [4]: 2 µg/mL (≈ 1.44 µM) | MIC Staphylococcus aureus (GC 4544) [4]: 8 µg/mL (≈ 5.74 µM) | MIC Staphylococcus aureus (GC 4545) [4]: 4 µg/mL (≈ 2.87 µM) | MIC Coagulase Negative Staphylococcus (GC 4547) [4]: 4 µg/mL (≈ 2.87 µM) | MIC Coagulase Negative Staphylococcus (GC 4548) [4]: 1 µg/mL (≈ 0.718 µM) | MIC Coagulase Negative Staphylococcus (GC 4549) [4]: 2 µg/mL (≈ 1.44 µM) | MIC Coagulase Negative Staphylococcus (GC 4551) [4]: 8 µg/mL (≈ 5.74 µM)
SMILES: CC(c1ccccc1)C1NC(=O)CNC(=O)C(CO)NC(=O)C(C(O)C2CNC(=N)N2C2OC(CO)C(O)C(O)C2O)NC(=O)C(C(O)C2CNC(=N)N2)NC(=O)C(Cc2ccc(OC3OC(CO)C(OC4OC5COC6(CCSCC6)OC5C(O)C4O)C(O)C3O)cc2)NC1=O (stereo not drawn) [Example 217, Cyclo[glycyl-β-methylphenylalanyl-O-[4-O-[4,6-O-(tetrahydrothiopyran-4-ylidene)hexopyranosyl]hexopyranosyl]tyrosyl-3-(2-iminoimidazolidin-4-yl)seryl-3-(3-hexopyranosyl-2-iminoimidazolidin-4-yl)serylseryl]]
MIC Staphylococcus haemolyticus (GC 4546) [4]: 2 µg/mL (≈ 1.44 µM)

— US8247211B2, “Glycopeptide antibiotics” (American Cyanamid Company, priority 2001, dated 2012)
